This is an account of results in US7208515B2, “Diphenylmethyl compounds useful as muscarinic receptor antagonists” (Theravance, Inc., priority 2004, dated 2007).

In assay [1] the test system is pilocarpine-evoked salivation. The experiment in a line: Inhalation guinea pig salivation assay. In kind it is in vivo. Here is the method: Inhalation Guinea Pig Salivation Assay
Guinea pigs (Charles River, Wilmington, Mass.) weighing 200–350 g were acclimated to the in-house guinea pig colony for at least 3 days following arrival. Test compound or vehicle were dosed via inhalation (IH) over a 10 minute time period in a pie shaped dosing chamber (R&S Molds, San Carlos, Calif.). Test solutions were dissolved in sterile water and delivered using a nebulizer filled with 5.0 mL of dosing solution. Guinea pigs were restrained in the inhalation chamber for 30 minutes. During this time, guinea pigs were restricted to an area of approximately 110 sq. cm. […] Upon completion of nebulization, guinea pigs were evaluated at 1.5, 6, 12, 24, 48, or 72 hrs after treatment.
Guinea pigs were anesthetized one hour before testing with an intramuscular (IM) injection of a mixture of ketamine 43.75 mg/kg, xylazine 3.5 mg/kg, and acepromazine 1.05 mg/kg at an 0.88 mL/kg volume. […] Saliva was collected for 10 minutes, at which point the gauze pad was weighed and the difference in weight recorded to determine the amount of accumulated saliva (in mg). The mean amount of saliva collected for animals receiving the vehicle and each dose of test compound was calculated. […] Results were calculated using result means (n=3 or greater). Confidence intervals (95%) were calculated for each dose at each time point using two-way ANOVA. […]

Assay [2] deals with T1, hM2 receptor (CHO-K1 cells) (Homo sapiens, UniProt P08172).
T1 construct: expressed in transfected cells; host or cells: CHO-K1 cells
T1 sequence (P08172 1-466): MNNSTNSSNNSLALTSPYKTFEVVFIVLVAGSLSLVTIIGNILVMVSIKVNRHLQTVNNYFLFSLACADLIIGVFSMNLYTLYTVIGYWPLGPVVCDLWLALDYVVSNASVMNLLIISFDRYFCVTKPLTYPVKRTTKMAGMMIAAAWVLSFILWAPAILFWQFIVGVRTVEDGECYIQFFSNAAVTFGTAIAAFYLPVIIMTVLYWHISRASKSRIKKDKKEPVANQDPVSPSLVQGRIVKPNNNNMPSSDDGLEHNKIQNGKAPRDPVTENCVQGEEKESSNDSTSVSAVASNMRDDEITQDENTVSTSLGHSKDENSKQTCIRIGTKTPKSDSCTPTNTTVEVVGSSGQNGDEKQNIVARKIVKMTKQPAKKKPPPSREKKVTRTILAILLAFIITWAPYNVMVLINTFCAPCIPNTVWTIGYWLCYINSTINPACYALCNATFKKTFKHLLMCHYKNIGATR
As to the kind of experiment: Blockade of agonist-mediated [35S]GTPγS binding. The assay is classed as biochemical. The settings on record: CHO-K1 cells expressing the hM2 receptor; read-out: Ki value for blockade of oxotremorine-stimulated [35S]GTPγS binding. Here is the method: B. Blockade of Agonist-Mediated [^35S]GTPγS Binding
In a second functional assay, the functional potency of test compounds can be determined by measuring the ability of the compounds to block oxotremorine-stimulated [^35S]GTPγS binding in CHO-K1 cells expressing the hM2 receptor.
At the time of use, frozen membranes were thawed and then diluted in assay buffer with a final target tissue concentration of 5–10 μg protein per well. The membranes were briefly homogenized using a Polytron PT-2100 tissue disrupter and then added to the assay plates.
The EC90 value (effective concentration for 90% maximal response) for stimulation of [^35S]GTPγS binding by the agonist oxotremorine was determined in each experiment.
To determine the ability of a test compound to inhibit oxotremorine-stimulated [^35S]GTPγS binding, the following was added to each well of 96 well plates: 25 μL of assay buffer with [^35S]GTPγS (0.4 nM), 25 μL of oxotremorine(EC90) and GDP (3 μM), 25 μL of diluted test compound and 25 μL CHO cell membranes expressing the hM2 receptor. […] Microscint-20 scintillation liquid (50 μL) was added to each well, and each plate was sealed and radioactivity counted on a topcounter (PerkinElmer). Data were analyzed by nonlinear regression analysis with the GraphPad Prism Software package (GraphPad Software, Inc., San Diego, Calif.) using the non-linear regression, one-site competition equation. […]
In general terms: GTPγS is a poorly hydrolysed GTP analogue; its binding reports G protein activation.

One may read the Ki as the dissociation constant of the complex between target and ligand, obtained from inhibition or displacement. Turning to `CNCC(=O)NCCCCCN1CC[C@@H](C(C(N)=O)(c2ccccc2)c2ccccc2)C1` [Example 1], the “apparent lung selectivity index (ratio of anti-sialagogue ID50 to bronchoprotective ID50)” value in assay [1] is listed as “greater than 5”. Also, the Ki in assay [2] was < 100 nM.
